Experimental data from patent publication US20100035994A1, “NOVEL HYDRATE FORM OF O-DESMETHYL VENLAFAXINE SUCCINATE” (priority 2006, published 2010).
Each block holds one molecule with its values, some of them ahead of it.

Legend:
[1] = converted into form III on milling; per U.S. Pat. No. 6,673,838; cited from earlier work
[2] = in vivo; cited from earlier work
[3] = solubility of ODV succinate forms; type: physicochemical; settings: novel hydrate form of the present invention

Structure (SMILES): CN(C)CC(c1ccc(O)cc1)C1(O)CCCCC1.O.O=C(O)CCC(=O)O (stereo not drawn) [ODV succinate monohydrate form I]
stability of polymorphic form on milling [1]: unstable

Structure (SMILES): CN(C)CC(c1ccc(O)cc1)C1(O)CCCCC1.O=C(O)CCC(=O)O (stereo not drawn) [ODV succinate, O-desmethyl venlafaxine succinate]
absorption in the gastrointestinal tract [2]: well absorbed

solubility [3]: 55 mg/mL
Structure (SMILES): CN(C)CC(c1ccc(O)cc1)C1(O)CCCCC1.O=C(O)CCC(=O)O (stereo not drawn) [novel hydrate form of ODV succinate, O-desmethyl venlafaxine succinate]
